Data published in ChEMBL document CHEMBL1201862, “PubChem BioAssay data set” (2004).
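The compound was tested at five concentrations on cells cultured in 96-well plates, with a 48-hour exposure period. GI50 is the concentration that inhibits growth by half.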 Activity calls are given as the source filed them. No stated cut-off is given here; in the data, active = GI50 up to about 1.1 µM and inactive = higher.

Columns and labels:
Experiment in all cases: NCI tumour cell line growth inhibition, 48 h
OVCAR-3 = system: OVCAR-3
SK-OV-3 = system: SK-OV-3
OVCAR-5 = system: OVCAR-5
EKVX = system: EKVX
UACC-62 = system: UACC-62
COLO 205 = system: COLO 205
SF-268 = system: SF-268
CCRF-CEM = system: CCRF-CEM
NCI/ADR-RES = system: NCI/ADR-RES
HCT-116 = system: HCT-116
K562 = system: K562
NCI-H23 = system: NCI-H23
NCI-H226 = system: NCI-H226
UACC-257 = system: UACC-257
CAKI-1 = system: CAKI-1
SK-MEL-28 = system: SK-MEL-28
SNB-75 = system: SNB-75
IGROV-1 = system: IGROV-1
SF-295 = system: SF-295
A549 = system: A549

Which results are given for O=C1CCCCC1C(O)(C(F)(F)F)C(F)(F)Cl (stereo not drawn)?
GI50 (OVCAR-3): > 10 µM (inactive); GI50 (SK-OV-3): > 10 µM (inactive); GI50 (OVCAR-5): > 10 µM (inactive); GI50 (EKVX): > 10 µM (inactive); GI50 (UACC-62): > 10 µM (inactive); GI50 (COLO 205): > 10 µM (inactive); GI50 (SF-268): > 10 µM (inactive); GI50 (CCRF-CEM): > 10 µM (inactive); GI50 (NCI/ADR-RES): > 10 µM (inactive); GI50 (HCT-116): > 10 µM (inactive); GI50 (K562): > 10 µM (inactive); GI50 (NCI-H23): > 10 µM (inactive); GI50 (NCI-H226): > 10 µM (inactive); GI50 (UACC-257): > 10 µM (inactive); GI50 (CAKI-1): > 10 µM (inactive); GI50 (SK-MEL-28): > 10 µM (inactive); GI50 (SNB-75): > 10 µM (inactive); GI50 (IGROV-1): > 10 µM (inactive); GI50 (SF-295): > 10 µM (inactive); GI50 (A549): > 10 µM (inactive)

CC1(C)CCCCCC(C)(CCCO)C1=O (stereo not drawn) was tested. Which GI50 (OVCAR-3) did it give?
Its GI50 is > 100 µM (inactive).

And the GI50 (SK-OV-3)?
Its GI50 is > 100 µM (inactive).

What about the GI50 (OVCAR-5) of the same compound?
Its GI50 is > 100 µM (inactive).

What about the GI50 (EKVX) of the same compound?
The GI50 was > 100 µM (inactive).

What about the GI50 (UACC-62) of the same compound?
Its GI50 is > 100 µM (inactive).

What about the GI50 (COLO 205) of the same compound?
Its GI50 is > 100 µM (inactive).

And the GI50 (SF-268)?
The GI50 was > 100 µM (inactive).

And the GI50 (CCRF-CEM)?
Its GI50 is > 100 µM (inactive).

What about the GI50 (NCI/ADR-RES) of the same compound?
Its GI50 is > 100 µM (inactive).

What about the GI50 (HCT-116) of the same compound?
The GI50 was > 100 µM (inactive).

What about the GI50 (K562) of the same compound?
Its GI50 is > 100 µM (inactive).

What about the GI50 (NCI-H23) of the same compound?
The GI50 was > 100 µM (inactive).

What about the GI50 (NCI-H226) of the same compound?
Its GI50 is > 100 µM (inactive).

And the GI50 (UACC-257)?
Its GI50 is > 100 µM (inactive).

What about the GI50 (CAKI-1) of the same compound?
Its GI50 is > 100 µM (inactive).

What about the GI50 (SK-MEL-28) of the same compound?
Its GI50 is > 100 µM (inactive).

And the GI50 (SNB-75)?
Its GI50 is > 100 µM (inactive).

And the GI50 (IGROV-1)?
The GI50 was > 100 µM (inactive).

What about the GI50 (SF-295) of the same compound?
Its GI50 is > 100 µM (inactive).

What about the GI50 (A549) of the same compound?
The GI50 was > 100 µM (inactive).

Which results are given for FC(F)(F)C1=NC(=NNc2nnc(-c3ccccc3)c(-c3ccccc3)n2)N=C(C(F)(F)F)C1?
GI50 (OVCAR-3): > 30.7 µM (inactive); GI50 (SK-OV-3): 60.4 µM (inactive); GI50 (OVCAR-5): 30.2 µM (inactive); GI50 (EKVX): 10.2 µM (inactive); GI50 (UACC-62): 3.54 µM (inactive); GI50 (COLO 205): 6.08 µM (inactive); GI50 (SF-268): 12.8 µM (inactive); GI50 (CCRF-CEM): 7.29 µM (inactive); GI50 (NCI/ADR-RES): 67.6 µM (inactive); GI50 (HCT-116): 11.6 µM (inactive); GI50 (K562): 4.11 µM (inactive); GI50 (NCI-H23): 19.5 µM (inactive); GI50 (NCI-H226): 29.4 µM (inactive); GI50 (UACC-257): 23.9 µM (inactive); GI50 (CAKI-1): 27.2 µM (inactive); GI50 (SK-MEL-28): 35.8 µM (inactive); GI50 (SNB-75): 25.7 µM (inactive); GI50 (IGROV-1): 21.5 µM (inactive); GI50 (SF-295): 8.2 µM (inactive); GI50 (A549): 13.3 µM (inactive)

What does the source list for C=CCN1C(=O)/C(=C/c2cccs2)N=C1SC1OC(COC(=O)c2ccccc2)C(OC(=O)c2ccccc2)C1OC(=O)c1ccccc1 (stereo not drawn)?
GI50 (OVCAR-3): > 100 µM (inactive); GI50 (SK-OV-3): > 100 µM (inactive); GI50 (OVCAR-5): > 100 µM (inactive); GI50 (EKVX): > 100 µM (inactive); GI50 (UACC-62): > 100 µM (inactive); GI50 (COLO 205): > 100 µM (inactive); GI50 (CCRF-CEM): 53.5 µM (inactive); GI50 (NCI/ADR-RES): > 100 µM (inactive); GI50 (K562): > 100 µM (inactive); GI50 (NCI-H23): > 100 µM (inactive); GI50 (NCI-H226): > 100 µM (inactive); GI50 (UACC-257): > 100 µM (inactive); GI50 (CAKI-1): > 100 µM (inactive); GI50 (SK-MEL-28): > 100 µM (inactive); GI50 (SNB-75): > 100 µM (inactive); GI50 (IGROV-1): > 100 µM (inactive); GI50 (SF-295): > 100 µM (inactive)

For COc1ccc2[nH]c3c(C)c4ccnc(NCCCN(C)CCCNc5ccc6nnn7c8ccccc8c(=O)c5c67)c4c(C)c3c2c1, which GI50 (OVCAR-3) is on record?
The GI50 was 1.17 µM (inactive).

What about the GI50 (SK-OV-3) of the same compound?
Its GI50 is 2.64 µM (inactive).

And the GI50 (OVCAR-5)?
Its GI50 is 1.24 µM (inactive).

And the GI50 (EKVX)?
Its GI50 is 1.01 µM (active).

What about the GI50 (UACC-62) of the same compound?
Its GI50 is > 10 µM (inactive).

What about the GI50 (COLO 205) of the same compound?
Its GI50 is 0.367 µM (active).

And the GI50 (SF-268)?
The GI50 was 0.679 µM (active).

What about the GI50 (CCRF-CEM) of the same compound?
Its GI50 is 0.0047 µM (active).

And the GI50 (NCI/ADR-RES)?
The GI50 was 0.982 µM (active).

And the GI50 (HCT-116)?
The GI50 was 0.0217 µM (active).

And the GI50 (K562)?
Its GI50 is 0.226 µM (active).

What about the GI50 (NCI-H23) of the same compound?
Its GI50 is 0.745 µM (active).

What about the GI50 (NCI-H226) of the same compound?
Its GI50 is > 10 µM (inactive).

And the GI50 (UACC-257)?
Its GI50 is 1.43 µM (inactive).

And the GI50 (CAKI-1)?
The GI50 was 1.03 µM (active).

What about the GI50 (SK-MEL-28) of the same compound?
Its GI50 is 1.75 µM (inactive).

And the GI50 (SNB-75)?
The GI50 was 1.01 µM (active).

And the GI50 (IGROV-1)?
The GI50 was 0.308 µM (active).

What about the GI50 (SF-295) of the same compound?
Its GI50 is 0.14 µM (active).

What about the GI50 (A549) of the same compound?
Its GI50 is 0.0395 µM (active).

For O=C1C=C(N2CC2)C(=O)C=C1N1CC1, which GI50 (OVCAR-3) is on record?
Its GI50 is 0.0889 µM (active).

And the GI50 (SK-OV-3)?
The GI50 was 0.522 µM (active).

What about the GI50 (OVCAR-5) of the same compound?
Its GI50 is 0.646 µM (active).

What about the GI50 (UACC-62) of the same compound?
The GI50 was 0.178 µM (active).

And the GI50 (COLO 205)?
Its GI50 is 0.0984 µM (active).

And the GI50 (SF-268)?
The GI50 was 0.155 µM (active).

And the GI50 (CCRF-CEM)?
The GI50 was 0.0291 µM (active).

What about the GI50 (NCI/ADR-RES) of the same compound?
The GI50 was 0.757 µM (active).

And the GI50 (NCI-H23)?
The GI50 was 0.0904 µM (active).

And the GI50 (NCI-H226)?
Its GI50 is 0.418 µM (active).

And the GI50 (UACC-257)?
The GI50 was 0.265 µM (active).

What about the GI50 (CAKI-1) of the same compound?
The GI50 was < 0.0148 µM (active).

And the GI50 (SK-MEL-28)?
Its GI50 is 0.29 µM (active).

And the GI50 (SNB-75)?
The GI50 was 0.385 µM (active).

What about the GI50 (IGROV-1) of the same compound?
The GI50 was 0.753 µM (active).

What about the GI50 (SF-295) of the same compound?
Its GI50 is 0.155 µM (active).
